ChEMBL document CHEMBL4325862, “Identification of novel quinazoline derivatives as potent antiplasmodial agents” (Eur J Med Chem, 2019)
Active and inactive are the calls of the source. The calls are words filed in the database; no cut-off is given here.

Legend:
Plasmodium falciparum [1] = assay: Antiplasmodial activity against asynchronous form of Plasmodium falciparum 3D7 infected in human erythrocytes assessed as parasite growth inhibition after 48 hrs by SYBR green1 staining based flow cytometry; type: functional, organism-based; conditions: 3D7, 48 h
[2] = target: T1, DNA (cytosine-5)-methyltransferase 3A (Homo sapiens, UniProt Q9Y6K1); assay: Inhibition of recombinant human DNMT3a C-terminal catalytic domain (623 to 908 residues) using 5'-biotinylated/3'-FAM-oligonucleotide as substrate measured after 1 hr in presence of Adomet by fluorescence assay
HFF = assay: Cytotoxicity against HFF; type: cell-based; conditions: Homo sapiens
Plasmodium falciparum [3] = assay: Antiplasmodial activity against Plasmodium falciparum Dd2 infected in human erythrocytes assessed as reduction in [3H]-hypoxanthine incorporation measured after 48 hrs by microbeta liquid scintillation counting method; type: functional, organism-based
[4] = Selectivity index, ratio of IC50 for mouse spleen cells to IC50 for asynchronous form of Plasmodium falciparum 3D7 infected in human erythrocytes; type: toxicity, cell-based; conditions: read-out: Ratio IC50
[5] = target: DNA (cytosine-5)-methyltransferase 1 (Homo sapiens, UniProt P26358); assay: Inhibition of recombinant human DNMT1 using biotinylated DNA duplex as substrate measured after 2 hrs in presence of Adomet/[methyl-3H]Adomet by topcount method
Plasmodium falciparum [6] = assay: Antiplasmodial activity against asynchronous form of Plasmodium falciparum 3D7 infected in human erythrocytes assessed as parasite growth inhibition at 10 uM after 48 hrs by SYBR green1 staining based flow cytometry relative to control; type: functional; conditions: 3D7, 48 h
Plasmodium falciparum [7] = assay: Antiplasmodial activity against asynchronous form of Plasmodium falciparum W2 infected in human erythrocytes assessed as parasite growth inhibition after 48 hrs by SYBR green1 staining based flow cytometry; type: functional, organism-based; conditions: W2, 48 h
[8] = target: T2, Histone-lysine N-methyltransferase EHMT2 (Homo sapiens, UniProt Q96KQ7); assay: Inhibition of recombinant human N-terminal GST-fused G9a (786 to 1210 residues) expressed in Escherichia coli using biotinylated H3 (1 to 21 residues) as substrate measured after 1 hr in presence of 3H-Adomet by filter binding assay
T2 sequence (Q96KQ7 whole entry): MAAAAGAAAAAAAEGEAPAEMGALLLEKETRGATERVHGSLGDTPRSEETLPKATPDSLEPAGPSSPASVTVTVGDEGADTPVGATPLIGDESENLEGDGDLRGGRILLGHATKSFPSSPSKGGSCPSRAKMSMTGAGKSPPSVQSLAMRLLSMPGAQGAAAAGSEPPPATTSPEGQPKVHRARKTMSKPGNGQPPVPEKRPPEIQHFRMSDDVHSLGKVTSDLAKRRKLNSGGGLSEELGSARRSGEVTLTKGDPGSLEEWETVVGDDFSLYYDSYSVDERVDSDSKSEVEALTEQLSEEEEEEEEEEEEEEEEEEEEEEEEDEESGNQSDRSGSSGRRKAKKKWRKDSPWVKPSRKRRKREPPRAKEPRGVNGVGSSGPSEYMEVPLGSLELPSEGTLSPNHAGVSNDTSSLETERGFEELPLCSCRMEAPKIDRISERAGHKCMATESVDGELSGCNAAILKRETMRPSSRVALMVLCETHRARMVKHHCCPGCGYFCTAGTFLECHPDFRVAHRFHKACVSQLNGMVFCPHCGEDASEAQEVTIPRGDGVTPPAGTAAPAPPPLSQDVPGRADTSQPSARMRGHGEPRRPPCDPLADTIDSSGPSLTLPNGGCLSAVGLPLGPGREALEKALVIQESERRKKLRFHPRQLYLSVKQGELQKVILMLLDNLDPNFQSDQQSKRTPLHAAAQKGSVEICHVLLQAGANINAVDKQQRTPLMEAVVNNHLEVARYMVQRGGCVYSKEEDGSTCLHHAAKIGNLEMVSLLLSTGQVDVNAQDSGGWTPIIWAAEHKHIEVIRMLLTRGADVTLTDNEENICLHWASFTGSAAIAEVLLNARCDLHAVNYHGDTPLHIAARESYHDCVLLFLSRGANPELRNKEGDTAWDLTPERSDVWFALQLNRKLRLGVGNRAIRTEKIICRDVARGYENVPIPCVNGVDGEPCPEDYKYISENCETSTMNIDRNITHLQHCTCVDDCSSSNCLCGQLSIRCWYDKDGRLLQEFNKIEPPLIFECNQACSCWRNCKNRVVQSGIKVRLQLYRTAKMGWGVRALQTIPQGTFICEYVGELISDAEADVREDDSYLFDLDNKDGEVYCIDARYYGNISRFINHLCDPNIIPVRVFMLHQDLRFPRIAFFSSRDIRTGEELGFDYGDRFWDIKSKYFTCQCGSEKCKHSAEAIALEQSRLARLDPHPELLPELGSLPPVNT

[9] = Cytotoxicity against mouse spleen cells; type: cell-based
Plasmodium berghei [10] = assay: Antimalarial activity against Plasmodium berghei ANKA infected in BALB/c mouse assessed as reduction in parasitemia at 20 mg/kg, po administered twice daily for 4 days by Giemsa-staining based microscopic analysis; type: functional, organism-based
[11] = Plasma concentration in Crl:NRMI mouse at 10 mg/kg, po administered via gavage measured after 30 mins by LC-MS/MS analysis; type: ADME, organism-based
[12] = Plasma concentration in Crl:NRMI mouse at 10 mg/kg, po administered via gavage measured after 180 mins by LC-MS/MS analysis; type: ADME, organism-based
[13] = Solubility of the compound in DPBS at >1 ug/ml; type: physicochemical
[14] = Plasma concentration in Crl:NRMI mouse at 10 mg/kg, iv measured after 60 mins by LC-MS/MS analysis; type: ADME, organism-based
[15] = Plasma concentration in Crl:NRMI mouse at 10 mg/kg, po administered via gavage measured after 60 mins by LC-MS/MS analysis; type: ADME, organism-based
[16] = Stability in phosphate buffered saline at pH 7.4 assessed as parent compound remaining after 24 hrs by UV/RP-HPLC analysis; type: physicochemical; conditions: read-out: Stability
Plasmodium berghei [17] = assay: Antimalarial activity against Plasmodium berghei ANKA infected in BALB/c mouse assessed as reduction in parasitemia at 20 mg/kg, po administered twice daily for 5 days by Giemsa-staining based microscopic analysis; type: functional, organism-based
Plasmodium berghei [18] = assay: Antimalarial activity against Plasmodium berghei ANKA infected in BALB/c mouse assessed as reduction in parasitemia at 20 mg/kg, po administered twice daily for 4 days measured day 6 to 11 post infection by Giemsa-staining based microscopic analysis; type: functional, organism-based
[19] = Plasma concentration in Crl:NRMI mouse at 10 mg/kg, iv measured after 180 mins by LC-MS/MS analysis; type: ADME, organism-based
[20] = Plasma concentration in Crl:NRMI mouse at 10 mg/kg, iv measured after 15 mins by LC-MS/MS analysis; type: ADME, organism-based
[21] = target: T1, DNA (cytosine-5)-methyltransferase 3A; assay: Inhibition of recombinant human DNMT3a C-terminal catalytic domain (623 to 908 residues) at 10 uM using 5'-biotinylated/3'-FAM-oligonucleotide as substrate measured after 1 hr in presence of Adomet by fluorescence assay relative to control
Plasmodium berghei [22] = assay: Antimalarial activity against Plasmodium berghei ANKA infected in BALB/c mouse assessed as reduction in parasitemia at 10 mg/kg, po administered twice daily for 4 days by Giemsa-staining based microscopic analysis; type: functional, organism-based
[23] = Toxicity in BALB/c mouse infected with Plasmodium berghei ANKA assessed as death at 50 mg/kg, po administered twice daily for 4 days; type: organism-based; conditions: in vivo, 96 h
[24] = Toxicity in BALB/c mouse infected with Plasmodium berghei ANKA assessed as death at 25 mg/kg, po administered twice daily for 4 days; type: organism-based; conditions: in vivo, 96 h
Plasmodium berghei [25] = assay: Antimalarial activity against Plasmodium berghei ANKA infected in BALB/c mouse assessed as parasitemia at 25 mg/kg, po administered twice daily for 4 days measured up to 14 days post infection by Giemsa-staining based microscopic analysis (reference value: 4%); type: functional
[26] = Acute toxicity in Crl:NRMI mouse assessed as death at 50 mg/kg, iv measured after 15 to 180 mins by LC-MS/MS analysis; type: organism-based; conditions: in vivo
[27] = Plasma concentration in Crl:NRMI mouse at 50 mg/kg, po administered via gavage measured after 30 mins by LC-MS/MS analysis; type: ADME, organism-based
[28] = Stability in phosphate buffered saline at pH 7.4 after 24 hrs by UV/RP-HPLC analysis; type: physicochemical; conditions: buffer, pH 7.4, 24 h
[29] = Plasma concentration in Crl:NRMI mouse at 50 mg/kg, po administered via gavage measured after 60 mins by LC-MS/MS analysis; type: ADME, organism-based
[30] = Plasma concentration in Crl:NRMI mouse at 50 mg/kg, po administered via gavage measured after 180 mins by LC-MS/MS analysis; type: ADME, organism-based
Plasmodium berghei [31] = assay: Antimalarial activity against Plasmodium berghei ANKA infected in BALB/c mouse assessed as reduction in parasitemia at 25 mg/kg, po administered twice daily for 4 days by Giemsa-staining based microscopic analysis; type: functional, organism-based

Chain of DNA (cytosine-5)-methyltransferase 1 (P26358 whole entry): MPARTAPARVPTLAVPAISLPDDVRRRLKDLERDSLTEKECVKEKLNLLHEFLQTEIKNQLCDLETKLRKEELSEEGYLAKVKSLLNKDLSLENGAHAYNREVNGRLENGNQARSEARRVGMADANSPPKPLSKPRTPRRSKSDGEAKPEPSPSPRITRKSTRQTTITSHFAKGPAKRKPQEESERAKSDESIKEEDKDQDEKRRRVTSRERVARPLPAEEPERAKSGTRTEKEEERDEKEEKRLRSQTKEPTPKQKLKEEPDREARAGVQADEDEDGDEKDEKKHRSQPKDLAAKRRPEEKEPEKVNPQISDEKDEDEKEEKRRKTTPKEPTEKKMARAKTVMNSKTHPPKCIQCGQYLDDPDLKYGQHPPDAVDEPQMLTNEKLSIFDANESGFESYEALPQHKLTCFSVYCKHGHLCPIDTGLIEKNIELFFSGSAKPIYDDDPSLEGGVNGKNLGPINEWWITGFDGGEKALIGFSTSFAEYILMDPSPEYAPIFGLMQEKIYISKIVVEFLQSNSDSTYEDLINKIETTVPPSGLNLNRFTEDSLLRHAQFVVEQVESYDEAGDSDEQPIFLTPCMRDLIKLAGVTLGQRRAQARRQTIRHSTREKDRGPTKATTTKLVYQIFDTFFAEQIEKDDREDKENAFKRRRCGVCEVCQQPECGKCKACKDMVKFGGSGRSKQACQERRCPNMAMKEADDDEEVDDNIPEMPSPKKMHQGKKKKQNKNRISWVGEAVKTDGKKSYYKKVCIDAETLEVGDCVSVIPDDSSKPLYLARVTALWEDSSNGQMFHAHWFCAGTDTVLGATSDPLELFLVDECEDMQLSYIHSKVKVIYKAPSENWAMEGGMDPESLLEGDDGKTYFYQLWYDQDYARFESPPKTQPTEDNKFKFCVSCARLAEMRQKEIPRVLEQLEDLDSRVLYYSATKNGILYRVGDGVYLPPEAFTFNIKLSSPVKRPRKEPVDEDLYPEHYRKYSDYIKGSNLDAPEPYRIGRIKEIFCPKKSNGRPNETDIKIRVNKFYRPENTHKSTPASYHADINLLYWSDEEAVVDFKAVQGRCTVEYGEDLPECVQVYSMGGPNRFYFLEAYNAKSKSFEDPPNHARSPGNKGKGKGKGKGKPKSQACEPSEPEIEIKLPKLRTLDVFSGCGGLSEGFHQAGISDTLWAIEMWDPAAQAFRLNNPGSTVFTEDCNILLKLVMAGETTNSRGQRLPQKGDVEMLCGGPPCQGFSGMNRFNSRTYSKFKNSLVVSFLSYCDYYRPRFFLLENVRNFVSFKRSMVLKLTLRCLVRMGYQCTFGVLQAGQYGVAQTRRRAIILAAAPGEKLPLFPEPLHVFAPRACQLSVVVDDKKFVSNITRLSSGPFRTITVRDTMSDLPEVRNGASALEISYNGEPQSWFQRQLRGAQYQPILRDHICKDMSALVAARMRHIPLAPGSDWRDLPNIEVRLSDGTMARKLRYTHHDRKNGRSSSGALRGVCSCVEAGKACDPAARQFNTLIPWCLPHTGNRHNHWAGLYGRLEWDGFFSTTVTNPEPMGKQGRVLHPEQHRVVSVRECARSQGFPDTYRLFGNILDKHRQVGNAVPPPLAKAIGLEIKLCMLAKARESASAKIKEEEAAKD
T1 sequence (Q9Y6K1 whole entry, looked up, the tested form may be a part): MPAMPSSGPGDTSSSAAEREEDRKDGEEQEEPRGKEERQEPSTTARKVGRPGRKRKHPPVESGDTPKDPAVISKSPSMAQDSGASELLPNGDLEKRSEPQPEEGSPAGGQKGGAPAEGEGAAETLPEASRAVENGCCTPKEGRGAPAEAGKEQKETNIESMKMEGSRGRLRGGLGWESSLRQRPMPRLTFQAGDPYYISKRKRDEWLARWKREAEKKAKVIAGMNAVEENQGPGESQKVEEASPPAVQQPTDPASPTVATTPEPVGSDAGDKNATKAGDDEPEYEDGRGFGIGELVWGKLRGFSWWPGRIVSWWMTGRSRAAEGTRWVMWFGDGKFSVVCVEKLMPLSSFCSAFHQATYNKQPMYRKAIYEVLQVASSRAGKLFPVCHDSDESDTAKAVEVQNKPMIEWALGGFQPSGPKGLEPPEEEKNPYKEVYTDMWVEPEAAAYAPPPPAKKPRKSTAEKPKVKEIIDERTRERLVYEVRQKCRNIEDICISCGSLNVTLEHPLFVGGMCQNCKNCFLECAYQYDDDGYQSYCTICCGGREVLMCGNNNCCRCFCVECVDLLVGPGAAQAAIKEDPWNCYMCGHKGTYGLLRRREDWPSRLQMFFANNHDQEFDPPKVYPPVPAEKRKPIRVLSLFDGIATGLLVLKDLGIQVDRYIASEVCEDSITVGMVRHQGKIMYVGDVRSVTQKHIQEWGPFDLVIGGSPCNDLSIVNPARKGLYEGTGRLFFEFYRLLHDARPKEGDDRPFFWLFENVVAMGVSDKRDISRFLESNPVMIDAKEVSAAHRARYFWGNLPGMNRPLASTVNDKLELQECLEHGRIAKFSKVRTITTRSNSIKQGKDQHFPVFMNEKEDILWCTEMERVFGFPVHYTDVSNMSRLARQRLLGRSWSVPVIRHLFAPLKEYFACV

| EC50 [2] [µM] | IC50 (Plasmodium falciparum [3]) [µM] | EC50 [5] [µM] | EC50 [8] [µM] | SMILES | IC50 (Plasmodium falciparum [1]) [µM] | IC50 (HFF) [µM] | selectivity ratio [4] | inhibition at 10 µM (Plasmodium falciparum [6]) [%] | IC50 (Plasmodium falciparum [7]) [µM] | IC50 [9] [µM] | further results |
| --- | --- | --- | --- | --- | --- | --- | --- | --- | --- | --- | --- |
| 5.2 | 0.0061 | > 100 | 31.8 | COc1ccc(CCN2CCC(Nc3nc(NCc4ccc(F)cc4)nc4cc(OC)c(OC)cc34)CC2)cc1 | 0.018 | 3.21 | 44 | 100 | 0.0258 | 0.8 |  |
| 8.7 | 0.0185 | > 100 | 137 | COc1cc2nc(NCc3ccc(F)cc3)nc(NC3CCN(C(=O)OC(C)(C)C)CC3)c2cc1OC | 0.0187 to 0.0189 | 7.17 | > 500 | 100 | 0.0436 | > 10 | Activity (Plasmodium berghei [10]): Active; concentration at 0.5 h [11]: 120 to 130 nM; concentration at 3 h [12]: 30 nM; solubility [13]: Insoluble; concentration at 1 h [14]: 930 to 1110 nM; concentration at 1 h [15]: 100 to 280 nM; remaining at 24 h [16]: 60%; Activity (Plasmodium berghei [17]): Active; Activity (Plasmodium berghei [18]): inactive; concentration at 3 h [19]: 220 to 460 nM; concentration at 0.25 h [20]: 3410 to 5110 nM |
|  |  |  |  | c1ccc(COc2ccc3c(NC4CCN(Cc5ccccc5)CC4)nc(N4CCN(c5ccccc5)CC4)nc3c2)cc1 | 0.0669 |  |  | 100 |  |  | inhibition [21]: 43% |
| 4.8 |  | > 100 | 50.9 | COc1ccc(CCN2CCC(Nc3nc(NCc4ccc(F)cc4)nc4ccccc34)CC2)cc1 | 0.0336 |  |  | 100 |  |  |  |

| SMILES | EC50 [2] [µM] | IC50 (Plasmodium falciparum [3]) [µM] | EC50 [5] [µM] | EC50 [8] [µM] | IC50 (Plasmodium falciparum [1]) [µM] | IC50 (HFF) [µM] | selectivity ratio [4] | inhibition at 10 µM (Plasmodium falciparum [6]) [%] | IC50 (Plasmodium falciparum [7]) [µM] | IC50 [9] [µM] | further results |
| --- | --- | --- | --- | --- | --- | --- | --- | --- | --- | --- | --- |
| COc1cc2c(NC3CCN(Cc4ccccc4)CC3)nc(N3CCN(c4ccccc4)CC3)nc2cc1OCc1ccccc1 | 1.6 | 0.0813 | > 100 | > 100 | 0.034 | 5.63 | > 295 | 100 | 0.0399 | > 10 | Activity (Plasmodium berghei [22]): Active; Activity [23]: Toxic; Activity [24]: Non-Toxic; Activity (Plasmodium berghei [25]): 2%; Activity [26]: Toxic; concentration at 0.5 h [27]: 380 to 940 nM; Stability [28]: Stable; concentration at 1 h [29]: 480 to 700 nM; concentration at 3 h [30]: 280 to 390 nM; Activity (Plasmodium berghei [31]): Active |
